Source: US20240188568A1, “ENVIRONMENTALLY FRIENDLY COMPOSITIONS AND METHODS OF THEIR USE FOR PROMOTING THE GROWTH OF TURFGRASS OVER WEEDS” (Edaphix, LLC, priority 2021, published 2024)

How the values were obtained:
seed geranium = conditions: in combination with nitrogen, phosphorus, and potassium; Lee and others (1996); cited from earlier work
French marigold = conditions: Jong et al. (1996); cited from earlier work
chlorophyllitic plants = conditions: as little as; cited from earlier work
turf weeds = assay: Turfgrass test plots, Bozeman, MT: weed cover; type: in vivo
Excerpt: (§1) Initially, a series of small turfgrass test plots was studied to gather preliminary information that helped guide the establishment of this larger, long-term study involving multiple rates and formulations. The test plots of this experiment were established in a weedy turfgrass location within the Bridger Creek Subdivision Community Association, Phase 1, Section 31, Township 1 South, Range 6 East, P.M.M., City of Bozeman, Gallatin County, Montana. The experimental site was established in a location with approximately 20 inches of annual precipitation, with annual maximum precipitation amounts observed in May and June. Winter conditions with frozen ground prevail during approximately 5 months of the year (November-March). Soils have high organic matter content in the upper six inches and are underlain by floodplain gravels and a water table 3-15 feet below ground surface. The primary turf weeds at this location in their order of relative prevalence are clover, dandelion, creeping Charlie, oxeye daisy, black medic and Canadian thistle. […]
(§2) The plots were typically 50 square feet (FIG. 1). Vegetation cover measurements were made using a frame placed on the turf and an estimate was calculated for the proportion of perennial grasses and weeds in each frame (FIG. 2). […] Since installation of the first plots, they have been monitored 5 times over a period of 21 months for vegetation cover. […]

perennial grasses = assay: Turfgrass test plots, Bozeman, MT: healthy perennial grass cover and turf stress; type: in vivo; conditions: healthy perennial grass cover averaged over each treatment category, 21 months (Table 3)
Excerpt: as §1, with “surface.” for “surface. The primary turf weeds at this location in their order of relative prevalence are clover, dandelion, creeping Charlie, oxeye daisy, black medic and Canadian thistle.”
as §2
The boron-only plots caused turf stress and yellowing. Immediately following application in monitoring, healthy and unhealthy/stressed turf was measured based on tissue color. […]

[1] = 2005 carcinogen assessment guidelines; cited from earlier work

[Mo] [Mo, molybdenum]
concentration of nutrient solution inducing micronutrient toxicity symptoms (seed geranium): 250 ng/mL

[Zn] [Zn, zinc]
concentration of nutrient solution inducing micronutrient toxicity symptoms (seed geranium): 500 ng/mL

[B] [boron]
concentration inducing micro-nutrient toxicity (French marigold): 500 ng/mL | concentration of nutrient solution inducing micronutrient toxicity symptoms (seed geranium): 500 ng/mL

O=C(O)CNCP(=O)(O)O [glyphosate]
application rate effective at causing photosynthetic disruption (chlorophyllitic plants): 0.75 pounds active ingredient per acre

O=C(O)COc1ccc(Cl)cc1Cl [2-4 D, 2,4-Dichlorophenoxyacetic acid]
weed cover, typical (turf weeds; typical value over the first 2 years of monitoring (FIG. 3), control about 50%): ~20% | Average Percent Ground Cover For 21-Month Monitoring Period, Weeds (turf weeds; weed cover averaged over each treatment category, 21 months (Table 3)): 13% | Average Percent Ground Cover For 21-Month Monitoring Period, Turf Grass (perennial grasses): 80%

OB(O)O [boric acid]
U.S. EPA carcinogenicity classification [1]: not likely to be carcinogenic to humans

borate salts
U.S. EPA carcinogenicity classification [1]: not likely to be carcinogenic to humans

[Cu] [Cu, copper]
concentration of nutrient solution inducing micronutrient toxicity symptoms (seed geranium): 500 ng/mL
